Results reported in the supplement of paper PMC10307832.

Tests used:
Assay in all cases: relative viability (nuclei count vs DMSO), 5 days (fraction); higher = more cells survive
Dactolisib + Pemetrexed = compound: Cn1c(=O)n(-c2ccc(C(C)(C)C#N)cc2)c2c3cc(-c4cnc5ccccc5c4)ccc3ncc21 [Dactolisib] + Nc1nc2[nH]cc(CCc3ccc(C(=O)N[C@@H](CCC(=O)O)C(=O)O)cc3)c2c(=O)[nH]1 [Pemetrexed] (partner 0.2 µM)
In short: (§1)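 Lung cancer cell lines were seeded in 1536-well plates and dosed by pin tool the next day, with either a single drug or a fixed anchor-drug dose combined with five library-drug doses (not always all listed) spaced in √10 steps. Five days later, one step fixed the cells and stained their nuclei (final 0.05% Triton X-100, 1% formaldehyde, 1 ug/ml Hoechst), and nuclei were counted on 4× images. Relative viability is the nuclei count in treated wells divided by the count in vehicle wells, and each value is the median of duplicate plates.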

AZ505 + Palbociclib = compound: C1CCC(CC1)N(CCNCCC2=C3C(=C(C=C2)O)NC(=O)CO3)C(=O)CCNCCC4=CC(=C(C=C4)Cl)Cl [AZ505] + CC(=O)c1c(C)c2cnc(Nc3ccc(N4CCNCC4)cn3)nc2n(C2CCCC2)c1=O [Palbociclib] (partner 0.5 µM)
In short: as §1

Dactolisib + Pictilisib = compound: Cn1c(=O)n(-c2ccc(C(C)(C)C#N)cc2)c2c3cc(-c4cnc5ccccc5c4)ccc3ncc21 [Dactolisib] + CS(=O)(=O)N1CCN(Cc2cc3nc(-c4cccc5[nH]ncc45)nc(N4CCOCC4)c3s2)CC1 [Pictilisib] (partner 1 µM)
In short: as §1

AZ505 + Alpelisib = compound: C1CCC(CC1)N(CCNCCC2=C3C(=C(C=C2)O)NC(=O)CO3)C(=O)CCNCCC4=CC(=C(C=C4)Cl)Cl [AZ505] + Cc1nc(NC(=O)N2CCC[C@H]2C(N)=O)sc1-c1ccnc(C(C)(C)C(F)(F)F)c1 [Alpelisib] (partner 2 µM)
In short: as §1

| Cell Line | relative viability (Dactolisib + Pemetrexed; first compound 0.002 µM) | relative viability (Dactolisib + Pemetrexed; first compound 0.006325 µM) | relative viability (Dactolisib + Pemetrexed; first compound 0.02 µM) | relative viability (Dactolisib + Pemetrexed; first compound 0.06325 µM) | relative viability (Dactolisib + Pemetrexed; first compound 0.2 µM) | relative viability (AZ505 + Palbociclib; first compound 0.253 µM) | relative viability (AZ505 + Palbociclib; first compound 0.8 µM) | relative viability (AZ505 + Palbociclib; first compound 2.53 µM) | relative viability (AZ505 + Palbociclib; first compound 8 µM) | relative viability (AZ505 + Palbociclib; first compound 0.08 µM) | relative viability (Dactolisib + Pictilisib; first compound 0.002 µM) | relative viability (Dactolisib + Pictilisib; first compound 0.006325 µM) | relative viability (Dactolisib + Pictilisib; first compound 0.02 µM) | relative viability (Dactolisib + Pictilisib; first compound 0.06325 µM) | relative viability (Dactolisib + Pictilisib; first compound 0.2 µM) | relative viability (AZ505 + Alpelisib; first compound 0.08 µM) | relative viability (AZ505 + Alpelisib; first compound 0.253 µM) | relative viability (AZ505 + Alpelisib; first compound 0.8 µM) | relative viability (AZ505 + Alpelisib; first compound 2.53 µM) | relative viability (AZ505 + Alpelisib; first compound 8 µM) |
| --- | --- | --- | --- | --- | --- | --- | --- | --- | --- | --- | --- | --- | --- | --- | --- | --- | --- | --- | --- | --- |
| NCI-H1648 | 0.779 | 0.739 | 0.896 | 0.837 | 0.52 | 0.264 | 0.305 | 0.284 | 0.27 |  |  |  |  |  |  |  |  |  |  |  |
| SK-MES-1 | 0.993 | 0.837 | 0.847 | 0.417 | 0.367 | 0.316 | 0.26 | 0.294 | 0.32 | 0.31 | 0.391 | 0.356 | 0.297 | 0.337 | 0.182 | 0.881 | 0.954 | 0.922 | 0.873 | 0.964 |
| SK-LU-1 | 0.944 | 0.913 | 0.874 | 0.747 | 0.439 | 0.343 | 0.292 | 0.322 | 0.336 | 0.319 | 0.48 | 0.547 | 0.484 | 0.432 | 0.211 | 0.499 | 0.846 | 0.537 | 0.69 | 0.741 |
| HCC-366 | 0.104 | 0.183 | 0.229 | 0.173 | 0.147 | 0.491 | 0.326 | 0.402 | 0.384 | 0.361 | 0.201 | 0.147 | 0.124 | 0.0657 | 0.102 | 0.306 | 0.379 | 0.326 | 0.411 | 0.385 |
| 201T | 0.329 | 0.295 | 0.292 | 0.272 | 0.247 | 0.353 | 0.331 | 0.357 | 0.353 | 0.36 | 0.753 | 0.661 | 0.661 | 0.538 | 0.539 | 0.942 | 1.01 | 0.973 | 1.04 | 1.05 |
| HCC-827 | 0.216 | 0.222 | 0.219 | 0.213 | 0.145 | 0.551 | 0.374 | 0.509 | 0.525 | 0.416 | 1.28 | 0.997 | 0.932 | 0.654 | 0.63 | 0.921 | 0.997 | 0.87 | 0.947 | 1.06 |
| NCI-H647 | 0.144 | 0.172 | 0.194 | 0.154 | 0.101 | 0.461 | 0.387 | 0.429 | 0.432 | 0.362 | 0.448 | 0.407 | 0.409 | 0.227 | 0.151 | 1.04 | 1.46 | 1.05 | 1.07 | 1.08 |
| NCI-H2023 | 0.172 | 0.182 | 0.179 | 0.101 | 0.0876 | 0.405 | 0.345 | 0.365 | 0.345 | 0.368 | 0.205 | 0.212 | 0.173 | 0.121 | 0.108 | 0.561 | 0.618 | 0.588 | 0.491 | 0.533 |
| NCI-H520 | 0.537 | 0.506 | 0.364 | 0.213 | 0.115 | 0.235 | 0.201 | 0.263 | 0.237 | 0.229 | 0.299 | 0.235 | 0.234 | 0.195 | 0.184 | 0.92 | 0.829 | 0.862 | 0.84 | 0.99 |
| RERF-LC-KJ | 0.488 | 0.479 | 0.46 | 0.433 | 0.434 | 1.15 | 1.05 | 1 | 0.984 | 0.982 | 0.562 | 0.519 | 0.466 | 0.41 | 0.293 | 0.775 | 0.767 | 0.741 | 0.901 | 0.863 |
| A-427 | 1.09 | 1.03 | 0.968 | 0.8 | 0.644 | 0.526 | 0.499 | 0.512 | 0.527 | 0.529 | 0.648 | 0.674 | 0.718 | 0.49 | 0.498 | 1.08 | 1.11 | 1.04 | 1.01 | 1.08 |
| NCI-H441 | 0.24 | 0.266 | 0.24 | 0.221 | 0.25 | 0.233 | 0.258 | 0.231 | 0.223 | 0.228 | 0.758 | 0.464 | 0.412 | 0.285 | 0.233 | 0.721 | 0.698 | 0.599 | 0.671 | 0.761 |
| NCI-H1703 |  |  |  |  |  |  |  |  |  |  |  |  | 0.257 | 0.228 | 0.192 | 0.292 | 0.372 | 0.414 | 0.341 | 0.369 |
| NCI-H1792 | 0.625 | 0.473 | 0.313 | 0.109 | 0.0622 |  | 0.619 | 0.612 | 0.696 | 0.642 | 0.323 | 0.246 | 0.218 | 0.0901 | 0.0962 | 0.719 | 0.769 | 0.66 | 0.701 | 0.642 |
| Calu-6 |  |  |  |  |  |  |  |  |  |  | 0.935 | 0.855 | 0.729 | 0.414 | 0.352 | 0.842 | 1.07 | 0.934 | 0.937 | 0.962 |
| SW 1573 | 0.696 | 0.768 | 0.584 | 0.284 | 0.203 | 0.393 | 0.389 | 0.441 | 0.4 | 0.342 | 0.609 | 0.446 | 0.405 | 0.35 | 0.15 | 0.658 | 0.714 | 0.661 | 0.82 | 0.858 |
| PC-3 [JPC-3] | 1.35 | 1.11 | 1 | 1.26 | 0.555 |  | 0.521 | 0.566 | 0.568 | 0.527 | 0.78 | 0.784 | 0.696 | 0.697 | 0.572 | 0.914 | 0.961 | 0.941 | 0.919 | 0.979 |
